We go through one molecule from patent publication US8071616B2, “Pyridine, quinoline, and isoquinoline N-oxides as kinase inhibitors” (Bayer Healthcare LLC, priority 2002, dated 2011).

Structures are written as SMILES.

Broadly, the melting point is the temperature of the solid-liquid transition. `CNC(=O)c1cc(Oc2ccc(NC(=O)Nc3ccc(Cl)c(C(F)(F)F)c3)cc2)cc[n+]1[O-]` [Experimental Synthesis 1, N-[4-chloro-3-(trifluoromethyl)phenyl]-N′-{4-[2-(N-methylcarbamoyl)-1-oxo-(4-pyridyloxy)]phenyl}urea] returned a melting point of 232 to 234 °C.
